Biological target: T1, FLK-1R (Mus musculus, UniProt P35918)
T1 construct: expressed in transfected cells; host or cells: NIH3T3 C7#3
Assay: FLK-1 receptor ELISA in cells engineered to express Flk-1
Format: cell-based
Settings: 50% inhibition of PTK activity over control
Method: The cellular/catalytic assays described herein are performed in an ELISA format. The general procedure is a follows: a compound is introduced to cells expressing the test kinase, either naturally or recombinantly, for some period of time after which, if the test kinase is a receptor, a ligand known to activate the receptor's activity is added. The cells are lysed and the lysate is transferred to the wells of an ELISA plate previously coated with a specific antibody recognizing the substrate of the enzymatic phosphorylation reaction. Non-substrate components of the cell lysate are washed away and the amount of phosphorylation on the substrate is detected with an antibody specifically recognizing phosphotyrosine compared with control cells that were not contacted with a test compound.
An ELISA assay is conducted to measure the kinase activity of the FLK-1 receptor and more specifically, the inhibition or activation of TK activity on the FLK-1 receptor. Specifically, the following assay can be conducted to measure kinase activity of the FLK-1 receptor in cells genetically engineered to express Flk-1.
The following reagents and supplies are used:
a. Corning 96-well ELISA plates (Corning Catalog No. 25805-96);
b. Cappel goat anti-rabbit IgG (catalog no. 55641);
c. PBS (Gibco Catalog No. 450-1300EB);
d. TBSW Buffer (50 mM Tris (pH 7.2), 150 mM NaCl and 0.1% Tween-20);
e. Ethanolamine stock (10% ethanolamine (pH 7.0), stored at 4° C.);
f. HNTG buffer (20 mM HEPES buffer (pH 7.5), 150 mM NaCl, 0.2% Triton X-100, and 10% glycerol);
g. EDTA (0.5 M (pH 7.0) as a 100×stock);
h. Sodium orthovanadate (0.5 M as a 100×stock);
i. Sodium pyrophosphate (0.2 M as a 100×stock);
j. NUNC 96 well V bottom polypropylene plates (Applied Scientific Catalog No. AS-72092);
k. NIH3T3 C7#3 Cells (FLK-1 expressing cells)
l. DMEM with 1×high glucose L-Glutamine (catalog No. 11965-050);
n. L-glutamine, Gibco (catalog no. 25030-016);
o. VEGF, PeproTech, Inc. (catalog no. 100-20) (kept as 1 μg/100 μL stock in Milli-Q dH2O and stored at −20° C.;
p. Affinity purified anti-FLK-1 antiserum;
q. UB40 monoclonal antibody specific for phosphotyrosine (see, Fendley, et al., 1990, Cancer Research 50:1550-1558);
r. EIA grade Goat anti-mouse IgG-POD (BioRad catalog no. 172-1011);
s. 2,2-azino-bis(3-ethylbenz-thiazoline-6-sulfonic acid (ABTS) solution (100 mM citric acid (anhydrous), 250 mM Na2HPO4 (pH 4.0), 0.5 mg/mL ABTS (Sigma catalog no. A-1888)), solution should be stored in dark at 4° C. until ready for use;
t. H2O2 (30% solution) (Fisher catalog no. H325);
u. ABTS/H2O2 (15 mL ABTS solution, 2 μL H2O2) prepared 5 minutes before use and left at room temperature;
v. 0.2 M HCl stock in H2O;
w. dimethylsulfoxide (100%)(Sigma Catalog No. D-8418); and
y. Trypsin-EDTA (Gibco BRL Catalog No. 25200-049).
The following protocol can be used for conducting the assay:
1. Coat Corning 96-well ELISA plates with 1.0 μg per well Cappel Anti-rabbit IgG antibody in 0.1 M Na2CO3 pH 9.6. Bring final volume to 150 μL per well. Coat plates overnight at 4° C. Plates can be kept up to two weeks when stored at 4° C.
2. Grow cells in Growth media(DMEM, supplemented with 2.0 mM L-Glutamine, 10% FBS) in suitable culture dishes until confluent at 37° C., 5% CO2.
3. Harvest cells by trypsinization and seed in Corning 25850 polystyrene 96-well round bottom cell plates, 25.000 cells/well in 200 μL of growth media.
4. Grow cells at least one day at 37° C., 5% CO2.
5. Wash cells with D-PBS 1×.
6. Add 200 μL/well of starvation media (DMEM, 2.0 mM 1-Glutamine, 0.1% FBS). Incubate overnight at 37° C., 5% CO2.
7. Dilute Compounds 1:20 in polypropylene 96 well plates using starvation media. Dilute dimethylsulfoxide 1:20 for use in control wells.
8. Remove starvation media from 96 well cell culture plates and add 162 μL of fresh starvation media to each well.
9. […]

T1 sequence (P35918 20-1345): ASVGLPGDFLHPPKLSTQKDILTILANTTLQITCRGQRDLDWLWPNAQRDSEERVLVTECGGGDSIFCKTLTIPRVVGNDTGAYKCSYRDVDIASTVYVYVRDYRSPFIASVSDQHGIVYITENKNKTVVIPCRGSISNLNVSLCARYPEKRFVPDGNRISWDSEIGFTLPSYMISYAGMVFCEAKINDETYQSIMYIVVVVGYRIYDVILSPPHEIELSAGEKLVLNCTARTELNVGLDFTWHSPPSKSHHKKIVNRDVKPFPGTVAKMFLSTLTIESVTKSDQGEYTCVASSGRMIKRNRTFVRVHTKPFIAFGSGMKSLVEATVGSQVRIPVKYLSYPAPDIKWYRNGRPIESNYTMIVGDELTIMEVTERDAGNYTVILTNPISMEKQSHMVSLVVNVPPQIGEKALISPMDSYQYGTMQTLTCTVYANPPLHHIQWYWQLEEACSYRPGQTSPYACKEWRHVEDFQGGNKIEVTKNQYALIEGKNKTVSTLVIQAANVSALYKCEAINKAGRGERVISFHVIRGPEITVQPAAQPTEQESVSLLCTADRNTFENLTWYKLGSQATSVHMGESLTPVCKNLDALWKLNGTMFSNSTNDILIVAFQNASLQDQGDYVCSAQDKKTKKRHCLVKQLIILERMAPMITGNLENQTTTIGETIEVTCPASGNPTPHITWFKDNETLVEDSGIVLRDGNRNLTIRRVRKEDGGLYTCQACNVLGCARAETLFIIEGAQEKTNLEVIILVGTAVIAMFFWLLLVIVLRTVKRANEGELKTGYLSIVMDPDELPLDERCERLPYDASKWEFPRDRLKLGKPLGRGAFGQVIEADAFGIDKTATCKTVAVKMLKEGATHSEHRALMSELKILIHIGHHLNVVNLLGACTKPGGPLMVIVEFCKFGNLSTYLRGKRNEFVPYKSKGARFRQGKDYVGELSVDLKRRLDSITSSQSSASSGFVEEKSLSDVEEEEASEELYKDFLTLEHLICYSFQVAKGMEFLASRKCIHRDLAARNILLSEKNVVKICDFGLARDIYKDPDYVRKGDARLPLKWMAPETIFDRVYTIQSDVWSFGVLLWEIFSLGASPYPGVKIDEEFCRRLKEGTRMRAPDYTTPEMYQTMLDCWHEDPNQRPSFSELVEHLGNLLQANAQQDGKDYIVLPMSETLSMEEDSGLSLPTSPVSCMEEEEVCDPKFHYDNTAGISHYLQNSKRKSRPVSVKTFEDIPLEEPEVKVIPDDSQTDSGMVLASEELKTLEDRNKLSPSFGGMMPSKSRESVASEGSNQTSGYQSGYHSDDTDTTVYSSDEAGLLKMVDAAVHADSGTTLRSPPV

Going from CCOC(=O)c1c(C)[nH]c(C=C2C(=O)Nc3ccc(NC(=O)c4ccc(C(=O)OC)cc4)cc32)c1C [3-(2,4-dimethyl-3-ethoxycarbonylpyrrol-5-methylidenyl)-5-(4-methoxycarbonylbenzamido)-2-indolinone] to CCOC(=O)c1c(C)[nH]c(C=C2C(=O)Nc3ccc(Br)cc32)c1C [3-(2,4-dimethyl-3-ethoxycarbonylpyrrol-5-methylidenyl)-5-bromo-2-indolinone], the IC50 falls from > 10 µM to 4.2 µM. The second is the more potent here.

CC(=O)c1[nH]c(C=C2C(=O)Nc3ccccc32)c(C)c1C [3-(2-acetyl-3,4-dimethylpyrrol-5-methylidenyl)-2-indolinone] and CCOC(=O)c1[nH]c(C=C2C(=O)Nc3ccccc32)c(C(C)=O)c1C [3-(4-acetyl-2-ethoxycarbonyl-3-methylpyrrol-5-methylidenyl)-2-indolinone] cannot be ordered by IC50: 23.8 µM for the first, > 10 µM for the second.

First: COC(=O)Cc1c(Cl)[nH]c(C=C2C(=O)Nc3ccccc32)c1C(=O)OC [3-(2-chloro-4-methoxycarbonyl-3-methoxycarbonylmethylpyrrol-5-methylidenyl)-2-indolinone]
Second: COC(=O)CCc1c[nH]c(C=C2C(=O)Nc3ccccc32)c1C [3-[4-(2-methoxycarbonylethyl-3-methylpyrrol-2-methylidenyl]-2-indolinone]
The IC50 of the first is higher: > 50 µM for the first, 1.1 µM for the second.

First: CCOC(=O)c1c[nH]c(C=C2C(=O)Nc3ccccc32)c1C [3-(4-ethoxycarbonyl-3-methylpyrrol-2-methylidenyl)-2-indolinone]
Second: Cc1c[nH]c(C=C2C(=O)Nc3ccccc32)c1CCC(=O)O [3-[3-(2-carboxyethyl-4-methylpyrrol-2-methylidenyl]-2-indolinone]
The IC50 of the first is 2-fold lower: 0.2 µM for the first, 0.4 µM for the second. The first is the more potent here.

CCOC(=O)CCc1c(C(=O)OCC)[nH]c(C=C2C(=O)Nc3ccccc32)c1CC(=O)OCC [3-[2-ethoxycarbonyl-3-(2-ethoxycarbonylethyl)-4-ethoxycarbonylmethyl)pyrrol-5-methylidenyl)-2-indolinone] and COC(=O)CCc1c[nH]c(C=C2C(=O)Nc3cc(OC)c(OC)cc32)c1C [3-[4-(2-methoxycarbonylethyl)-3-methylpyrrol-2-methylidenyl]-5,6-dimethoxy-2-indolinone] cannot be ordered by IC50: > 10 µM for the first, 36 µM for the second.

Reference: patent US6486185B1, “3-heteroarylidene-2-indolinone protein kinase inhibitors” (Sugen, Inc., priority 1997, dated 2002)
